# Assay results published in PubChem BioAssay AID256 (DTP/NCI, 2004).
# Values joined by “and” are separate entries in the source; they are usually repeats but may differ in a detail not shown here. Equal values may be shown once. Inconclusive results and toxic doses are left out.
# Tested on: CD2F1 mice, L1210 leukemia ip, survival T/C
# Experiment: NCI In Vivo Anticancer Drug Screen. Data for tumor model L1210 Leukemia (intraperitoneal) in CD2F1 (CDF1) mice
# Settings: higher = longer survival
# Procedure, shortened: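 Ratio T/C, where T is the treated-group value and C the vehicle-dosed control value, from mice implanted with a transplantable tumor.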
# [1] = endpoint: mean survival time, dose: 100.0 mg/kg/injection, schedule: Q04DX003 (ip), vehicle: saline
# [2] = endpoint: mean survival time, dose: 200.0 mg/kg/injection, schedule: Q04DX003 (ip), vehicle: saline
# [3] = endpoint: mean survival time, dose: 400.0 mg/kg/injection, schedule: Q04DX003 (ip), vehicle: saline
# [4] = endpoint: mean survival time, dose: 100.0 mg/kg/injection, schedule: Q01DX001 (ip), vehicle: saline with Tween-80
# [5] = endpoint: mean survival time, dose: 200.0 mg/kg/injection, schedule: Q01DX001 (ip), vehicle: saline with Tween-80
# [6] = endpoint: mean survival time, dose: 100.0 mg/kg/injection, schedule: Q04DX003 (ip), vehicle: saline with Tween-80
# [7] = endpoint: mean survival time, dose: 200.0 mg/kg/injection, schedule: Q04DX003 (ip), vehicle: saline with Tween-80
# [8] = endpoint: mean survival time, dose: 400.0 mg/kg/injection, schedule: Q04DX003 (ip), vehicle: saline with Tween-80
smiles,measurement,setting,value
O=c1[nH]cnc2c1nc(N1CCCC1)n2C1OC(CO)C(O)C1O (stereo not given),T/C,"endpoint: mean survival time, dose: 12.5 mg/kg/injection, schedule: Q01DX005 (ip), vehicle: distilled water + Tween-80",102 % of control
same,T/C,"endpoint: mean survival time, dose: 25.0 mg/kg/injection, schedule: Q01DX005 (ip), vehicle: distilled water + Tween-80",98 % of control
same,T/C,"endpoint: mean survival time, dose: 50.0 mg/kg/injection, schedule: Q01DX005 (ip), vehicle: distilled water + Tween-80",100 % of control
same,T/C,"endpoint: mean survival time, dose: 100.0 mg/kg/injection, schedule: Q01DX005 (ip), vehicle: distilled water + Tween-80",102 % of control
CN(C)c1ccc(N2C(N)=NC(N)=NC2(C)C)cc1,T/C,"endpoint: mean survival time, dose: 25.0 mg/kg/injection, schedule: Q01DX001 (ip), vehicle: saline",101 % of control
same,T/C,"endpoint: mean survival time, dose: 50.0 mg/kg/injection, schedule: Q01DX001 (ip), vehicle: saline",101 % of control
same,T/C,"endpoint: mean survival time, dose: 100.0 mg/kg/injection, schedule: Q01DX001 (ip), vehicle: saline",98 % of control
O=C(O)CC(CC(=O)O)C(=O)O,T/C,[1],101 % of control
same,T/C,[2],103 % of control
same,T/C,[3],101 % of control
O=C(O)C1CCC=CC1c1ccccc1 (stereo not given),T/C,"endpoint: mean survival time, dose: 100.0 mg/kg/injection, schedule: Q04DX002 (ip), vehicle: saline with Tween-80",95 % of control
same,T/C,"endpoint: mean survival time, dose: 200.0 mg/kg/injection, schedule: Q04DX002 (ip), vehicle: saline with Tween-80",102 % of control
same,T/C,"endpoint: mean survival time, dose: 400.0 mg/kg/injection, schedule: Q04DX002 (ip), vehicle: saline with Tween-80",91 % of control
CCOC(=O)/C(C#N)=C(\C)c1ccccc1,T/C,"endpoint: mean survival time, dose: 37.5 mg/kg/injection, schedule: Q01DX009 (ip), vehicle: saline with Tween-80",95 % of control
same,T/C,"endpoint: mean survival time, dose: 75.0 mg/kg/injection, schedule: Q01DX009 (ip), vehicle: saline with Tween-80",97 % of control
NC1=NC(c2ccccc2)N(c2ccc(Cl)cc2)C(N)=N1 (stereo not given),T/C,[4],93 % of control
same,T/C,[5],95 % of control
CCCC[NH-].CCCC[NH-].O=C(O)CC(=O)O.[Pt+2],T/C,"endpoint: mean survival time, dose: 6.25 mg/kg/injection, schedule: Q04DX003 (ip), vehicle: saline with Tween-80",96 % of control
same,T/C,"endpoint: mean survival time, dose: 25.0 mg/kg/injection, schedule: Q04DX003 (ip), vehicle: saline with Tween-80",96 % of control
same,T/C,[6],98 % of control
CC[C@@]1(O)C(=O)OCc2c1cc1n(c2=O)Cc2cc3c(CN(C)C)c(O)ccc3nc2-1,T/C,"endpoint: median survival time, dose: 5.0 mg/kg/injection, schedule: Q04DX002 (ip), vehicle: water",119 % of control
same,T/C,"endpoint: median survival time, dose: 20.0 mg/kg/injection, schedule: Q04DX002 (ip), vehicle: water",183 % of control
same,T/C,"endpoint: median survival time, dose: 40.0 mg/kg/injection, schedule: Q04DX002 (ip), vehicle: water",264 % of control
CCCCSc1ncn(C)c1[N+](=O)[O-],T/C,"endpoint: mean survival time, dose: 50.0 mg/kg/injection, schedule: Q01DX001 (ip), vehicle: saline with Tween-80",101 % of control
same,T/C,[4],103 % of control
same,T/C,[5],101 % of control
CCC(=O)C(CC)(c1ccc(OC(C)=O)cc1)c1ccc(OC(C)=O)cc1,T/C,[1],94 % of control
same,T/C,[2],96 % of control
same,T/C,[3],96 % of control
C[C@H](C[P+](c1ccccc1)(c1ccccc1)c1ccccc1)[C@](OC(=O)c1ccccc1)(C(=O)c1ccccc1)c1ccccc1,T/C,"endpoint: mean survival time, dose: 1.25 mg/kg/injection, schedule: Q01DX009 (ip), vehicle: saline with Tween-80",101 % of control
same,T/C,"endpoint: mean survival time, dose: 2.5 mg/kg/injection, schedule: Q01DX009 (ip), vehicle: saline with Tween-80",98 % of control
same,T/C,"endpoint: mean survival time, dose: 5.0 mg/kg/injection, schedule: Q01DX001 (ip), vehicle: saline with Tween-80",103 % of control
same,T/C,"endpoint: mean survival time, dose: 5.0 mg/kg/injection, schedule: Q01DX009 (ip), vehicle: saline with Tween-80",98 % of control
CCCCNC(=O)Oc1ccc(C(=O)OCC)cc1,T/C,"endpoint: mean survival time, dose: 25.0 mg/kg/injection, schedule: Q01DX009 (ip), vehicle: saline with Tween-80",100 % of control
same,T/C,"endpoint: mean survival time, dose: 50.0 mg/kg/injection, schedule: Q01DX009 (ip), vehicle: saline with Tween-80",97 % of control
same,T/C,"endpoint: mean survival time, dose: 100.0 mg/kg/injection, schedule: Q01DX009 (ip), vehicle: saline with Tween-80",97 % of control and 100 % of control
same,T/C,[6],96 % of control
same,T/C,[7],96 % of control
same,T/C,[8],90 % of control
O=C(O)CNCc1ccc2c(c1)OCCO2,T/C,"endpoint: mean survival time, dose: 100.0 mg/kg/injection, schedule: Q01DX009 (ip), vehicle: Klucel (hydroxypropylcellulose) (HPC)",103 % of control
same,T/C,"endpoint: mean survival time, dose: 200.0 mg/kg/injection, schedule: Q01DX009 (ip), vehicle: Klucel (hydroxypropylcellulose) (HPC)",98 % of control
same,T/C,"endpoint: mean survival time, dose: 400.0 mg/kg/injection, schedule: Q01DX009 (ip), vehicle: Klucel (hydroxypropylcellulose) (HPC)",95 % of control
Cc1cccc(CC(F)(F)F)c1,T/C,[6],102 % of control
same,T/C,[7],100 % of control
same,T/C,[8],89 % of control
